Results from ChEMBL document CHEMBL1201862, “PubChem BioAssay data set” (2004).
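Exposure lasted 48 hours, with cells grown in 96-well plates and compounds tested at five concentrations. Here, GI50 denotes the concentration required for 50% inhibition of growth.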 The source made the active and inactive calls. No stated cut-off is given here; in the data, active = GI50 up to about 1.1 µM and inactive = higher.

Columns and labels:
Assay in all cases: NCI anticancer screen, dose series, 48 h
[1] = system: PC-3
[2] = system: RPMI-8226
[3] = system: M14
[4] = system: KM12
[5] = system: UO-31
[6] = system: LOX IMVI
[7] = system: EKVX
[8] = system: NCI/ADR-RES
[9] = system: RXF 393
[10] = system: SK-MEL-2
[11] = system: ACHN
[12] = system: SN12C
[13] = system: Hs-578T
[14] = system: K562
[15] = system: COLO 205
[16] = system: TK-10
[17] = system: OVCAR-8
[18] = system: SF-268
[19] = system: HOP-92
[20] = system: SR

SMILES	GI50 [1]	GI50 [2]	GI50 [3]	GI50 [4]	GI50 [5]	GI50 [6]	GI50 [7]	GI50 [8]	GI50 [9]	GI50 [10]	GI50 [11]	GI50 [12]	GI50 [13]	GI50 [14]	GI50 [15]	GI50 [16]	GI50 [17]	GI50 [18]	GI50 [19]	GI50 [20]
CCC1(N)C(=O)OCc2c1cc1n(c2=O)Cc2cc3ccccc3nc2-1 (centres undefined)	15.2 µM (inactive)	32.7 µM (inactive)	7.41 µM (inactive)	46.1 µM (inactive)	3.42 µM (inactive)	4.78 µM (inactive)	51.4 µM (inactive)	5.02 µM (inactive)	13.4 µM (inactive)	> 85.7 µM (inactive)	3.73 µM (inactive)	3.99 µM (inactive)	> 100 µM (inactive)	18.9 µM (inactive)	30.5 µM (inactive)	> 74.3 µM (inactive)	7.71 µM (inactive)	5.7 µM (inactive)	35.4 µM (inactive)	
N=C(N)SCC(=O)O	> 100 µM (inactive)	> 100 µM (inactive)	> 100 µM (inactive)	> 100 µM (inactive)	> 100 µM (inactive)	> 100 µM (inactive)	> 100 µM (inactive)	> 100 µM (inactive)	> 100 µM (inactive)	> 100 µM (inactive)	> 100 µM (inactive)	> 100 µM (inactive)	> 100 µM (inactive)	5.68 µM (inactive)	> 100 µM (inactive)	> 100 µM (inactive)	> 100 µM (inactive)	> 100 µM (inactive)	> 100 µM (inactive)	
OCC(O)C(O)C(O)C(/C=N\Nc1ncnc2ccc(Br)cc12)=N/Nc1ncnc2ccc(Br)cc12 (centres undefined)	19 µM (inactive)	> 100 µM (inactive)	9.48 µM (inactive)	17.2 µM (inactive)	37.5 µM (inactive)	5.12 µM (inactive)	4.42 µM (inactive)		24.9 µM (inactive)	3.33 µM (inactive)	5.24 µM (inactive)	17.9 µM (inactive)	> 100 µM (inactive)	7.48 µM (inactive)	3.31 µM (inactive)	80.5 µM (inactive)	4.01 µM (inactive)	0.423 µM (active)	13.8 µM (inactive)	3.17 µM (inactive)
CN(C)CCCN1c2ccc([N+](=O)[O-])cc2CCc2cc([N+](=O)[O-])ccc21	13.6 µM (inactive)	15.5 µM (inactive)	14.5 µM (inactive)	16 µM (inactive)	12 µM (inactive)	13.2 µM (inactive)	15.2 µM (inactive)	16.4 µM (inactive)	11.7 µM (inactive)	17.5 µM (inactive)	15.6 µM (inactive)	15 µM (inactive)	17.4 µM (inactive)	13.1 µM (inactive)	14.2 µM (inactive)	12 µM (inactive)	15.8 µM (inactive)	14.5 µM (inactive)	5.41 µM (inactive)	
C/C=C1\CC(C(=O)OCC)CCCCCCC1=O (centres undefined)	> 100 µM (inactive)		> 100 µM (inactive)	> 100 µM (inactive)	> 100 µM (inactive)	> 100 µM (inactive)	> 100 µM (inactive)	> 100 µM (inactive)	> 100 µM (inactive)	> 100 µM (inactive)	> 100 µM (inactive)	> 100 µM (inactive)	> 100 µM (inactive)		> 100 µM (inactive)	> 100 µM (inactive)	> 100 µM (inactive)	> 100 µM (inactive)		
C/C(=N\NS(=O)(=O)c1ccc(C)cc1)P(=O)(O)O	> 100 µM (inactive)	> 100 µM (inactive)	> 100 µM (inactive)	> 100 µM (inactive)	> 100 µM (inactive)	> 100 µM (inactive)	> 100 µM (inactive)	> 100 µM (inactive)	> 100 µM (inactive)	> 100 µM (inactive)	> 100 µM (inactive)	> 100 µM (inactive)	> 100 µM (inactive)	> 100 µM (inactive)	> 100 µM (inactive)	> 100 µM (inactive)	> 100 µM (inactive)	> 100 µM (inactive)	> 100 µM (inactive)	
COCCNc1cncc(C(N)=O)c1	> 100 µM (inactive)		> 100 µM (inactive)	> 100 µM (inactive)	> 100 µM (inactive)		> 100 µM (inactive)	> 100 µM (inactive)		> 100 µM (inactive)	> 100 µM (inactive)	> 100 µM (inactive)	> 100 µM (inactive)	> 100 µM (inactive)	> 100 µM (inactive)	> 100 µM (inactive)	> 100 µM (inactive)	> 100 µM (inactive)		> 100 µM (inactive)
N#Cc1c(-c2ccccc2)cc(-c2ccccc2)n(C2OCC(O)C(O)C2O)c1=S (centres undefined)	14.6 µM (inactive)	10.4 µM (inactive)	27.2 µM (inactive)	12.9 µM (inactive)	19 µM (inactive)	18.1 µM (inactive)	36.2 µM (inactive)	32.4 µM (inactive)	18.4 µM (inactive)	25.4 µM (inactive)	18.3 µM (inactive)	> 10 µM (inactive)	29.6 µM (inactive)	39 µM (inactive)	20.1 µM (inactive)	27.9 µM (inactive)	20.8 µM (inactive)	23.4 µM (inactive)		
Cc1ccc(S(=O)(=O)NC(=O)Nc2ccc(C(=O)O)cc2)cc1	> 100 µM (inactive)	> 100 µM (inactive)	> 100 µM (inactive)	> 100 µM (inactive)	> 100 µM (inactive)	> 100 µM (inactive)		> 100 µM (inactive)	> 100 µM (inactive)	> 100 µM (inactive)	> 100 µM (inactive)	> 100 µM (inactive)	> 100 µM (inactive)	> 100 µM (inactive)	> 100 µM (inactive)	> 100 µM (inactive)	> 100 µM (inactive)	> 100 µM (inactive)	> 100 µM (inactive)	
Cc1ccc(C(=O)/C(C#N)=C/Nc2c(C)n(C)n(-c3ccccc3)c2=O)cc1	> 100 µM (inactive)	> 100 µM (inactive)	> 100 µM (inactive)	> 100 µM (inactive)	> 100 µM (inactive)	> 100 µM (inactive)	> 100 µM (inactive)		> 100 µM (inactive)	> 100 µM (inactive)	> 100 µM (inactive)	> 100 µM (inactive)	> 100 µM (inactive)	> 100 µM (inactive)	> 100 µM (inactive)	> 100 µM (inactive)		> 100 µM (inactive)	46.2 µM (inactive)	> 100 µM (inactive)
O=C1NCC2(CCNCC2)N1		> 100 µM (inactive)	> 100 µM (inactive)	> 100 µM (inactive)	> 100 µM (inactive)	> 100 µM (inactive)	> 100 µM (inactive)	> 100 µM (inactive)	> 100 µM (inactive)		> 100 µM (inactive)	> 100 µM (inactive)	> 100 µM (inactive)		> 100 µM (inactive)	> 100 µM (inactive)	> 100 µM (inactive)	> 100 µM (inactive)	> 100 µM (inactive)	> 100 µM (inactive)
COc1ccccc1CNCCCCCNCCCCCCCCCCNCCCCCNCc1ccccc1OC		36.7 µM (inactive)	73.6 µM (inactive)	4.54 µM (inactive)	42 µM (inactive)	16.7 µM (inactive)			31 µM (inactive)	18.4 µM (inactive)	> 100 µM (inactive)	27.4 µM (inactive)	1.05 µM (active)	13.6 µM (inactive)	34.3 µM (inactive)	54.6 µM (inactive)	25.6 µM (inactive)	39.4 µM (inactive)	34.5 µM (inactive)	14.9 µM (inactive)
N#Cc1nc(CCCN2C(=O)c3ccccc3C2=O)oc1N	> 100 µM (inactive)	> 100 µM (inactive)	> 100 µM (inactive)		> 100 µM (inactive)	> 100 µM (inactive)	> 100 µM (inactive)	> 100 µM (inactive)	> 100 µM (inactive)	> 100 µM (inactive)	> 100 µM (inactive)	> 100 µM (inactive)	> 100 µM (inactive)	> 100 µM (inactive)	> 100 µM (inactive)	> 100 µM (inactive)	> 100 µM (inactive)	> 100 µM (inactive)		> 100 µM (inactive)
CN(CC(=O)Nc1ccccc1C(=O)O)c1ccccc1	> 100 µM (inactive)	> 100 µM (inactive)	> 100 µM (inactive)	> 100 µM (inactive)	> 100 µM (inactive)	> 100 µM (inactive)	> 100 µM (inactive)		> 100 µM (inactive)		> 100 µM (inactive)	40.6 µM (inactive)	> 100 µM (inactive)	> 100 µM (inactive)		> 100 µM (inactive)	> 100 µM (inactive)	> 100 µM (inactive)	> 100 µM (inactive)	> 100 µM (inactive)
Cc1ccc(F)cc1NC(=O)O/N=C(\Cl)C(C)C	18 µM (inactive)	2.17 µM (inactive)	5.22 µM (inactive)	16.9 µM (inactive)	7.98 µM (inactive)	1.98 µM (inactive)	7.19 µM (inactive)	10.6 µM (inactive)	3.05 µM (inactive)	19.1 µM (inactive)	2.14 µM (inactive)	6.11 µM (inactive)	22.5 µM (inactive)	1.97 µM (inactive)	1.9 µM (inactive)	3.71 µM (inactive)	17.5 µM (inactive)	24.5 µM (inactive)	2.58 µM (inactive)	
